{"source": "paper PMC6318274", "about": "“Lattice engineering enables definition of molecular features allowing for potent small-molecule inhibition of HIV-1 entry” (Nature Communications, 2019)", "origin": "cited, not measured here", "test_system": "HIV-1 Env-pseudoviruses (208-strain panel)", "settings": "cited from earlier work; for pIC50: read-out: IC50; for % Neutralized / Total Neutralized: 208 viruses", "note": "pIC50: −log10 of the molar value. Like-named read-outs stand apart in the source and are kept apart here.", "data": [{"smiles": "COc1cnc(-n2cnc(C)n2)c2[nH]cc(C(=O)C(=O)N3CCN(C(=O)c4ccccc4)CC3)c12", "note": "[BMS-626529]", "values": [{"measurement": "pIC50", "setting": "CNE20, clade BC", "value": 6.47}, {"measurement": "pIC50", "setting": "CNE21, clade BC", "value": 8.70}, {"measurement": "pIC50", "setting": "CNE30, clade C", "value": 9.00}, {"measurement": "pIC50", "setting": "CNE31, clade C", "value": 7.64}, {"measurement": "pIC50", "setting": "CNE40, clade BC", "value": 7.42}, {"measurement": "pIC50", "setting": "CNE53, clade C", "value": 9.30}, {"measurement": "pIC50", "setting": "CNE55, clade AE", "value": 5.32}, {"measurement": "pIC50", "setting": "CNE56, clade AE", "value": "< 4.70"}, {"measurement": "pIC50", "setting": "CNE57, clade B", "value": 8.70}, {"measurement": "pIC50", "setting": "CNE58, clade C", "value": 8.40}, {"measurement": "pIC50", "setting": "CNE59, clade AE", "value": "< 4.70"}, {"measurement": "pIC50", "setting": "Ce1176.A3, clade C", "value": 8.00}, {"measurement": "pIC50", "setting": "DJ263.8, clade AG", "value": 7.96}, {"measurement": "pIC50", "setting": "DU123.06, clade C", "value": 8.30}, {"measurement": "pIC50", "setting": "DU151.02, clade C", "value": 8.22}, {"measurement": "pIC50", "setting": "DU156.12, clade C", "value": 8.52}, {"measurement": "pIC50", "setting": "DU172.17, clade C", "value": 8.10}, {"measurement": "pIC50", "setting": "DU422.01, clade C", "value": 8.10}, {"measurement": "pIC50", "setting": "HO86.8, clade B", "value": 7.70}, {"measurement": "pIC50", "setting": "HT593.1, clade B", "value": 9.05}, {"measurement": "pIC50", "setting": "HXB2.DG, clade B", "value": 9.00}, {"measurement": "% Neutralized", "setting": "IC50 <0.01ug/ml", "value": 46, "unit": "%"}, {"measurement": "Total Neutralized", "setting": "IC50 <0.01ug/ml", "value": 95}, {"measurement": "% Neutralized", "setting": "IC50 <0.1ug/ml", "value": 71, "unit": "%"}, {"measurement": "Total Neutralized", "setting": "IC50 <0.1ug/ml", "value": 147}, {"measurement": "% Neutralized", "setting": "IC50 <1.0ug/ml", "value": 80, "unit": "%"}, {"measurement": "Total Neutralized", "setting": "IC50 <1.0ug/ml", "value": 167}, {"measurement": "% Neutralized", "setting": "IC50 <10ug/ml", "value": 89, "unit": "%"}, {"measurement": "Total Neutralized", "setting": "IC50 <10ug/ml", "value": 185}, {"measurement": "% Neutralized", "setting": "IC50 <50ug/ml", "value": 91, "unit": "%"}, {"measurement": "Total Neutralized", "setting": "IC50 <50ug/ml", "value": 189}, {"measurement": "pIC50", "setting": "JRCSF.JB, clade B", "value": 9.52}, {"measurement": "pIC50", "setting": "JRFL.JB, clade B", "value": 9.40}, {"measurement": "pIC50", "setting": "KER2008.12, clade A", "value": 5.73}, {"measurement": "pIC50", "setting": "KER2018.11, clade A", "value": 8.10}, {"measurement": "pIC50", "setting": "KNH1209.18, clade A", "value": 7.54}, {"measurement": "pIC50", "setting": "M02138, clade AE", "value": 5.55}, {"measurement": "pIC50", "setting": "MB201.A1, clade A", "value": 6.20}, {"measurement": "pIC50", "setting": "MB539.2B7, clade A", "value": 6.72}, {"measurement": "pIC50", "setting": "MI369.A5, clade A", "value": 7.89}, {"measurement": "pIC50", "setting": "MN.3, clade B", "value": 8.00}, {"measurement": "pIC50", "setting": "MS208.A1, clade A", "value": 7.96}, {"measurement": "pIC50", "setting": "MW965.26, clade C", "value": 6.36}, {"measurement": "pIC50", "setting": "NKU3006.ec1, clade D", "value": 8.30}, {"measurement": "pIC50", "setting": "P0402.c2.11, clade G", "value": 7.49}, {"measurement": "pIC50", "setting": "P1981.C5.3, clade G", "value": 6.68}, {"measurement": "pIC50", "setting": "PVO.04, clade B", "value": 8.52}, {"measurement": "pIC50", "setting": "Q23.17, clade A", "value": 7.92}, {"measurement": "pIC50", "setting": "Q168.a2, clade AD", "value": 6.94}, {"measurement": "pIC50", "setting": "Q259.17, clade A", "value": 5.91}, {"measurement": "pIC50", "setting": "Q461.e2, clade AD", "value": 7.92}, {"measurement": "pIC50", "setting": "Q769.d22, clade A", "value": 6.91}, {"measurement": "pIC50", "setting": "Q769.h5, clade A", "value": 6.37}, {"measurement": "pIC50", "setting": "Q842.d12, clade A", "value": 7.77}, {"measurement": "pIC50", "setting": "QH209.14M.A2, clade A", "value": 6.21}, {"measurement": "pIC50", "setting": "QH0515.01, clade B", "value": 7.92}, {"measurement": "pIC50", "setting": "QH0692.42, clade B", "value": 8.05}, {"measurement": "pIC50", "setting": "R1166.c1, clade AE", "value": "< 4.70"}, {"measurement": "pIC50", "setting": "R2184.c4, clade AE", "value": "< 4.70"}, {"measurement": "pIC50", "setting": "R3265.c6, clade AE", "value": 4.89}, {"measurement": "pIC50", "setting": "REJO.67, clade B", "value": 5.98}, {"measurement": "pIC50", "setting": "RHPA.7, clade B", "value": 8.40}, {"measurement": "pIC50", "setting": "RW020.2, clade A", "value": 7.15}, {"measurement": "pIC50", "setting": "SC422.8, clade B", "value": 8.70}, {"measurement": "pIC50", "setting": "SF162.LS, clade B", "value": 9.00}, {"measurement": "pIC50", "setting": "SO18.18, clade C", "value": 8.52}, {"measurement": "pIC50", "setting": "SS1196.01, clade B", "value": 5.15}, {"measurement": "pIC50", "setting": "T33-7, clade AG", "value": 5.55}, {"measurement": "pIC50", "setting": "T250-4, clade AG", "value": 7.82}, {"measurement": "pIC50", "setting": "T251-18, clade AG", "value": 7.72}, {"measurement": "pIC50", "setting": "T253-11, clade AG", "value": 9.00}, {"measurement": "pIC50", "setting": "T255-34, clade AG", "value": 7.09}, {"measurement": "pIC50", "setting": "T257-31, clade AG", "value": 7.24}, {"measurement": "pIC50", "setting": "T266-60, clade AG", "value": 5.86}, {"measurement": "pIC50", "setting": "T278-50, clade AG", "value": 9.70}, {"measurement": "pIC50", "setting": "T280-5, clade AG", "value": 8.00}, {"measurement": "pIC50", "setting": "TH023.6, clade AE", "value": "< 4.70"}, {"measurement": "pIC50", "setting": "TH966.8, clade AE", "value": "< 4.70"}, {"measurement": "pIC50", "setting": "TH976.17, clade AE", "value": "< 4.70"}, {"measurement": "pIC50", "setting": "THRO.18, clade B", "value": 8.52}, {"measurement": "pIC50", "setting": "TRJO.58, clade B", "value": 9.00}, {"measurement": "pIC50", "setting": "TRO.11, clade B", "value": 5.97}, {"measurement": "pIC50", "setting": "TV1.29, clade C", "value": 7.17}, {"measurement": "pIC50", "setting": "TZA125.17, clade C", "value": 7.85}, {"measurement": "pIC50", "setting": "TZBD.02, clade C", "value": 8.30}, {"measurement": "pIC50", "setting": "UG021.16, clade D", "value": 7.89}, {"measurement": "pIC50", "setting": "UG024.2, clade D", "value": 6.25}, {"measurement": "pIC50", "setting": "UG037.8, clade A", "value": 6.00}, {"measurement": "pIC50", "setting": "WITO.33, clade B", "value": 8.30}, {"measurement": "pIC50", "setting": "X1254.c3, clade G", "value": 7.37}, {"measurement": "pIC50", "setting": "X1632.S2.B10, clade G", "value": 7.27}, {"measurement": "pIC50", "setting": "X2088.c9, clade G", "value": 8.52}, {"measurement": "pIC50", "setting": "X2131.C1.B5, clade G", "value": 6.57}, {"measurement": "pIC50", "setting": "X2278.C2.B6, clade B", "value": 5.90}, {"measurement": "pIC50", "setting": "YU2.DG, clade B", "value": 9.05}, {"measurement": "pIC50", "setting": "ZA012.29, clade C", "value": 8.15}, {"measurement": "pIC50", "setting": "ZM53.12, clade C", "value": 8.00}, {"measurement": "pIC50", "setting": "ZM55.28a, clade C", "value": 8.22}, {"measurement": "pIC50", "setting": "ZM106.9, clade C", "value": 7.77}, {"measurement": "pIC50", "setting": "ZM109.4, clade C", "value": 9.00}, {"measurement": "pIC50", "setting": "ZM135.10a, clade C", "value": 6.05}, {"measurement": "pIC50", "setting": "ZM176.66, clade C", "value": 7.74}, {"measurement": "pIC50", "setting": "ZM197.7, clade C", "value": 8.22}, {"measurement": "pIC50", "setting": "ZM214.15, clade C", "value": 8.70}, {"measurement": "pIC50", "setting": "ZM215.8, clade C", "value": 8.70}, {"measurement": "pIC50", "setting": "ZM233.6, clade C", "value": 9.10}, {"measurement": "pIC50", "setting": "ZM249.1, clade C", "value": 7.74}, {"measurement": "pIC50", "setting": "[…], clade C", "value": 8.70}, {"measurement": "pIC50", "setting": "[…], clade G", "value": 6.92}]}]}
